Tested on: 349418-098-R-PDC complex spheroid viability
Assay: Anticancer human tumor 349418-098-R-PDC patient-derived lung adenocarcinoma cell line growth inhibition [RAS]
Conditions: for IC50: curve of first compound; for viability, T/C: stronger effect = lower value; active means viability on the fitted dose curve at most 10% of control; inactive means the rest
Procedure, shortened: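 Multi-cell-type spheroids: tumor cells plus HUVEC endothelial cells and mesenchymal stem cells. RAS-pathway inhibitors were combined with targeted agents, each dosed in half-log steps down from clinical Cmax, or from 10 microM when Cmax was unknown.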

[1] = second compound 0.000949 µM, first compound 0.0316 µM
[2] = second compound 0.000949 µM, first compound 0.1 µM
[3] = second compound 0.000949 µM, first compound 0.316 µM
[4] = second compound 0.000949 µM, first compound 1 µM
[5] = second compound 0.000949 µM, first compound 3.16 µM
[6] = second compound 0.000949 µM, first compound 10 µM
[7] = second compound 0.003 µM, first compound 0.0316 µM
[8] = second compound 0.003 µM, first compound 0.1 µM
[9] = second compound 0.003 µM, first compound 0.316 µM
[10] = second compound 0.003 µM, first compound 1 µM
[11] = second compound 0.003 µM, first compound 3.16 µM
[12] = second compound 0.003 µM, first compound 10 µM
[13] = second compound 0.00949 µM, first compound 0.0316 µM
[14] = second compound 0.00949 µM, first compound 0.1 µM
[15] = second compound 0.00949 µM, first compound 0.316 µM
[16] = second compound 0.00949 µM, first compound 1 µM
[17] = second compound 0.00949 µM, first compound 3.16 µM
[18] = second compound 0.00949 µM, first compound 10 µM
[19] = second compound 0.03 µM, first compound 0.0316 µM
[20] = second compound 0.03 µM, first compound 0.1 µM
[21] = second compound 0.03 µM, first compound 0.316 µM
[22] = second compound 0.03 µM, first compound 1 µM
[23] = second compound 0.03 µM, first compound 3.16 µM
[24] = second compound 0.03 µM, first compound 10 µM
[25] = second compound 0.0949 µM, first compound 0.0316 µM
[26] = second compound 0.0949 µM, first compound 0.1 µM
[27] = second compound 0.0949 µM, first compound 0.316 µM
[28] = second compound 0.0949 µM, first compound 1 µM
[29] = second compound 0.0949 µM, first compound 3.16 µM
[30] = second compound 0.0949 µM, first compound 10 µM
[31] = second compound 0.3 µM, first compound 0.0316 µM
[32] = second compound 0.3 µM, first compound 0.1 µM
[33] = second compound 0.3 µM, first compound 0.316 µM
[34] = second compound 0.3 µM, first compound 1 µM
[35] = second compound 0.3 µM, first compound 3.16 µM
[36] = second compound 0.3 µM, first compound 10 µM
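Further: spheroids exposed to compound for seven days before viability readout.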

NC1c2ccccc2OC12CCN(c1cnc3c(N4CCCc5ncccc54)n[nH]c3n1)CC2 (centres undefined) + CCn1c(-c2cccnc2C(C)OC)c2c3cc(ccc31)N1CCOC(CC(NC(=O)C(C(C)C)N(C)C(=O)C3(F)CCN(C(=O)C#CC(C)(C)N(C)C)CC3)C(=O)N3CCCC(N3)C(=O)OCC(C)(C)C2)C1
inactive: viability, T/C [1] 78.4% | viability, T/C [2] 93.4% | viability, T/C [3] 90.7% | viability, T/C [4] 97% | viability, T/C [5] 108% | viability, T/C [6] 75.5% | viability, T/C [7] 97.2% | viability, T/C [8] 95.3% | viability, T/C [9] 91% | viability, T/C [10] 99.4% | viability, T/C [11] 98.5% | viability, T/C [12] 71.7% | viability, T/C [13] 108% | viability, T/C [14] 95.4% | viability, T/C [15] 90.3% | viability, T/C [16] 116% | viability, T/C [17] 93.6% | viability, T/C [18] 59.8% | viability, T/C [19] 93.9% | viability, T/C [20] 102% | viability, T/C [21] 115% | viability, T/C [22] 96.8% | viability, T/C [23] 98.1% | viability, T/C [24] 85% | viability, T/C [25] 105% | viability, T/C [26] 103% | viability, T/C [27] 116% | viability, T/C [28] 91.3% | viability, T/C [29] 89.7% | viability, T/C [30] 59.3% | viability, T/C [31] 84.8% | viability, T/C [32] 68.8% | viability, T/C [33] 102% | viability, T/C [34] 90.8% | viability, T/C [35] 85.2% | viability, T/C [36] 61.4%
> 10000 nM: IC50 (second compound 0.000949 µM) | IC50 (second compound 0.003 µM) | IC50 (second compound 0.00949 µM) | IC50 (second compound 0.03 µM) | IC50 (second compound 0.0949 µM) | IC50 (second compound 0.3 µM)

C[C@@H](NC(=O)c1ncnc(N)c1Cl)c1ncc(C(=O)Nc2cc(C(F)(F)F)c(Cl)cn2)s1 + CCn1c(-c2cccnc2C(C)OC)c2c3cc(ccc31)N1CCOC(CC(NC(=O)C(C(C)C)N(C)C(=O)C3(F)CCN(C(=O)C#CC(C)(C)N(C)C)CC3)C(=O)N3CCCC(N3)C(=O)OCC(C)(C)C2)C1
1430 nM: IC50 (second compound 0.00949 µM)
1900 nM: IC50 (second compound 0.0949 µM)
1280 nM: IC50 (second compound 0.000949 µM)
1580 nM: IC50 (second compound 0.03 µM)
1230 nM: IC50 (second compound 0.3 µM)
inactive: viability, T/C [1] 113% | viability, T/C [2] 106% | viability, T/C [3] 90.3% | viability, T/C [4] 55.4% | viability, T/C [5] 29.4% | viability, T/C [6] 20.2% | viability, T/C [7] 117% | viability, T/C [8] 97.5% | viability, T/C [9] 88.3% | viability, T/C [10] 58.2% | viability, T/C [11] 32.5% | viability, T/C [12] 19.4% | viability, T/C [13] 94.7% | viability, T/C [14] 92.5% | viability, T/C [15] 73.9% | viability, T/C [16] 47.5% | viability, T/C [17] 45.1% | viability, T/C [18] 18.4% | viability, T/C [19] 114% | viability, T/C [20] 84.2% | viability, T/C [21] 82% | viability, T/C [22] 61.4% | viability, T/C [23] 33.7% | viability, T/C [24] 19.5% | viability, T/C [25] 97.2% | viability, T/C [26] 96.5% | viability, T/C [27] 89.3% | viability, T/C [28] 72.4% | viability, T/C [29] 32.5% | viability, T/C [30] 16.8% | viability, T/C [31] 107% | viability, T/C [32] 81.2% | viability, T/C [33] 66.5% | viability, T/C [34] 57.4% | viability, T/C [35] 40.9% | viability, T/C [36] 14.8%
1500 nM: IC50 (second compound 0.003 µM)

— PubChem BioAssay AID2060904 (Molecular Pharmacology Branch, DTP, NCI, 2025)
